What was measured:
NFκB = assay: NFκB-INHIBITION TEST (NF-kB gene reporter luciferase, TNFα-stimulated FB293 cells); format: cell-based, human
Method: The NFκB-INHIBITION TEST is conducted in the following manner. FB293 cells, a stable transfected human epithelial cell line containing the gene reporter for NF-kB are used. They may be obtained from, e.g., Panomics (Fremont, Calif.). FB293 are plated at a density of 5×10^4 cells/mL in a suitable medium, e.g., Dulbecco's modified Eagle's medium (DMEM) supplemented with 10% fetal bovine serum (Invitrogen, San Diego, Calif.). The FB293 cells are stimulated with 100 ng/mL of Tumor Necrosis Factor-α (TNFα, available from Sigma-Aldrich of St Louis, Mo.) in the presence of the test sample. Separately, a control sample is tested wherein no test sample is applied. Following a 24-hour incubation at 37° C. with 5% CO2, cells are lysed with 40 μl of reporter lysis buffer (Promega, Madison, Wis.). A 20-μl aliquot of the lysate is assayed using a luciferase assay kit (Promega) and counted for 10 s in a Lmax luminometer (Molecular Devices, Sunnyvale, Calif.) with the data represented as the relative light unit/second. Percent NFκB Inhibition of the test sample is calculated as: NFκB Inhibition=[1−(Lsample/Lcontrol)]*100 where Lsample is the luminescence of the sample and Lcontrol is the luminescence of the control.
The NFκB-INHIBITION TEST described above was performed on test samples of Bay 11-7082 (Sigma-Aldrich, St. Louis, Mo.), Tetrahydrocurcuminoids CG (Sabinsa Corporation, Piscataway, N.J.), as well as various concentrations of 4-hexylresorcinol. The results are shown in Table 1, in which NF-kB Gene Reporter Activation (Luminescence, L) is reported for the test samples and a control sample. Percent NF-kB Inhibition is also reported.
The NFκB-INHIBITION TEST described above was performed on a series of substituted resorcinols each having a concentration of 10 ug/ml.

elastin promoter = assay: TROPOELASTIN PROMOTER ASSAY (elastin promoter-luciferase reporter in H9C2 cells); format: cell-based, rat; settings: 0.1 ug/ml on active basis; for Percent Change Over Vehicle: 24 h (Table 3)
Method: Suitable tropoelastin promoters may be determined, for example, using the TROPOELASTIN PROMOTER ASSAY. The TROPOELASTIN PROMOTER ASSAY is performed as follows. Rat cardiac myoblasts H9C2 (which may be purchased, for example from ATCC of Manassas, Va.) are used. Cultures are maintained in Dulbecco's modified Eagle's medium (DMEM, Invitrogen Life Technologies, Carlsbad, Calif.) supplemented with 10% fetal bovine serum, 2 mM glutamine, 100 units/ml penicillin, and 50 ug/ml streptomycin (Invitrogen Life Technologies, Carlsbad, Calif.). Cell cultures are transiently transfected with the elastin promoter-luciferase reporter construct (Elp2.2, a 2.2 kb elastin promoter fragment from nt −2267 to nt +2, driving the firefly luciferase gene, which may be obtained from Promega, Madison Wis.). DNA is prepared by Qiagen Maxi columns (Qiagen Valencia, Calif.). In all transfections, a construct with the thymidine kinase promoter and the Renilla luciferase reporter gene (pRL-TK, Promega, Madison Wis.) is included as an internal control. Typically, cells grown in 48-well plates are transfected with 0.45 ug total DNA per well using Lipofectamine 2000 (Invitrogen Life Technologies, Carlsbad, Calif.). One day after transfection, cells are treated with agents at indicated concentrations for approximately 24 hours before they are lysed for luciferase assays, using Dual-Luciferase Reporter System from Promega (Madison, Wis.), following manufacturer's protocol. The firefly luciferase activity is measured first (representing elastin promoter activity), followed by the renilla luciferase (internal control), using luminometer LMAX, from Molecular Devices (Sunnyvale, Calif.). The ratio of these two luciferase activities (RLU) is used to evaluate the Tropoelastin Promoter Activity. […]

[1] = 10 ug/ml, series of substituted resorcinols (Table 2)

## CCCCCCc1ccc(O)cc1O [4-Hexylresorcinol]
NFκB; 1 ug/ml, TNFα 100 ng/ml stimulated FB293 cells, 24 h
  Percent NF-kB Inhibition: 1.9%
NFκB; 5 ug/ml, TNFα 100 ng/ml stimulated FB293 cells, 24 h
  Percent NF-kB Inhibition: 50.9%
NFκB; 10 ug/ml, TNFα 100 ng/ml stimulated FB293 cells, 24 h (Table 1)
  Percent NF-kB Inhibition: 72.9%
NFκB; [1]
  Percent NF-kB Inhibition: 92.4%
NFκB; 50 ug/ml, TNFα 100 ng/ml stimulated FB293 cells, 24 h
  Percent NF-kB Inhibition: 91.4%
Elastin promoter
  Percent Change Over Vehicle: −12%
Elastin promoter; listed as 4-hexylresorcinol
  Percent Change Over Vehicle: −12%
Elastin promoter; 24 h, vehicle 1.36 ± 0.33 (Table 3)
  Tropoelastin Promoter Activity: 1.2 ± 0.12

## CCCCCCCCCCCC1c2cc(c(O)cc2O)C(CCCCCCCCCCC)c2cc(c(O)cc2O)C(CCCCCCCCCCC)c2cc(c(O)cc2O)C(CCCCCCCCCCC)c2cc1c(O)cc2O (stereo not drawn) [C-Undecylcalix[4]-resorcinarene, C-Undecylcalix[4]-resorcinarene]
NFκB; [1]
  Percent NF-kB Inhibition: 4.87%

## CC1CCCC(=O)CCCCCc2cc(O)cc(O)c2C(=O)O1 (stereo not drawn) [Zearalanone]
NFκB; [1]
  Percent NF-kB Inhibition: 50.95%

## CC1CCCC(O)CCCCCc2cc(O)cc(O)c2C(=O)O1 (stereo not drawn) [β-Zearalanol]
NFκB; [1]
  Percent NF-kB Inhibition: 76.56%

## C[C@H]1CCC[C@@H](O)CCC/C=C/c2cc(O)cc(O)c2C(=O)O1 [β-Zearalenol]
NFκB; [1]
  Percent NF-kB Inhibition: 87.1%
